In US9758559B2, “Short peptides derived from VDAC1, compositions and methods of use thereof” (B.G. NEGEV TECHNOLOGIES AND APPLICATIONS LTD., AT …, priority 2013, dated 2017):
Where a SMILES comes first, the peptide text is derived from it. [ ]: non-standard residue; d: D form.

Tests used:
CLL-derived lymphocytes = assay: Cell death of CLL-derived lymphocytes (PBMCs of CLL patients), PI staining and FACS; type: cell-based, human; conditions: 90 min incubation, PI staining, FACS, read-out: IC50, induction of cell death, CLL
Protocol: PBMCs were isolated from venous blood of the CLL patients by Ficoll-Paque PLUS (GE Healthcare, Israel) density gradient centrifugation, as follows. Venous blood (10-20 ml) was drawn from CLL patients with satisfying diagnostic criteria for CLL or from normal adult donors. Blood was collected into heparin tubes and was diluted 1:1 with balance solution composed of two stock solutions, A (1% D-glucose, 50 mM CaCl2, 0.98 mM MgCl2, 5.4 mM KCl and 0.145 M Tris-HCl, pH 7.6) and B (0.14 M NaCl) in a 1:9 ratio. The resulting mix was carefully layered on Ficoll-Paque Plus (10 ml of diluted blood:15 ml Ficoll) in 50 ml conical tubes. The tubes were centrifuged at 400×g (with minimal acceleration and deceleration) and 18-20° C. for 40 min. […] Cells were counted by a Countess Automated Cell Counter (Invitrogen).
PBMCs (4×10^5 or 8×10^5 cells/sample) were incubated in 200 μl serum-free medium with the examined peptide for 90 min at room temperature and centrifuged (500×g, 5 min) Cell death was analyzed by PI staining and flow cytometer (Beckton-Dickinson) and BD Cell Quest Pro software. Apoptotic cell death was also analyzed by PI and annexin V-FITC staining (Zaid H et al. 2005. 12:751-760), and by acridine orange and ethidium bromide staining and confocal microscopy (Olympus 1×81). […]

MEC-1 cells = type: cell-based; conditions: 90 min incubation, serum-free medium, PI staining, FACS, read-out: IC50, induction of cell death, MEC-1
Protocol: MEC-1, MO1043 and T-Rex-293 cells were grown in DMEM supplemented with 10% FCS, 2 mM L-glutamine, 1000 U/ml penicillin and 1 mg/ml streptomycin, U-87, C6 and PC3 were maintained in RPMI 1640 supplemented with 10-20% FCS, 2 mM L-glutamine, 1000 U/ml penicillin and 1 mg/ml streptomycin. All cells were maintained in a humidified atmosphere with 5% CO2 at 37° C.
PBMCs (4×10^5 or 8×10^5 cells/sample) were incubated in 200 μl serum-free medium with the examined peptide for 90 min at room temperature and centrifuged (500×g, 5 min) Cell death was analyzed by PI staining and flow cytometer (Beckton-Dickinson) and BD Cell Quest Pro software. Apoptotic cell death was also analyzed by PI and annexin V-FITC staining (Zaid H et al. 2005. 12:751-760), and by acridine orange and ethidium bromide staining and confocal microscopy (Olympus 1×81).
To optimize the VDAC1 N-terminal derived peptides with respect to stability, length and specific targeting to cancer cells, several versions of these peptides were designed and tested for their efficacy in inducing the death of CLL-derived lymphocytes and MEC-1 cells (Table 3). Cells were incubated for 90 min with increasing concentrations of the indicated peptide and death was analyzed by PI stating and FACS as described hereinabove. As is clearly shown in FIG. 1 (and Table 3), deleting 6 residues from the C-terminus of the peptide, including the GXXXG motif, yielded a non-active peptide (peptide Δ(21-26) N-Ter-Antp, SEQ ID NO:22).

[1] = test system: human neuroblastoma cells (SH-SY5Y); assay: Cell death of SH-SY5Y cells, PI staining and flow cytometry; type: cell-based; conditions: 6 h, serum-free medium, PI-positive cells
Protocol: (§1) The efficacy of the peptide comprising amino acids […] of the N-terminal domain of VDAC1, synthesized with D-amino acids (all D-stereomeric peptide) conjugated to the Antp sequence also synthesized from D-amino acids as a CPP (D-Δ(1-14) N-Ter-Antp, SEQ ID NO:9) was further examined for its activity of inducing cell death with brain tumor derived cell lines. Human primary glioblastoma cells (U-87), human neuroblastoma cells (SH-SY5Y) and rat glioblastoma cells (C6) were incubated (4×10^5 cells) for 6 h in a serum-free-medium containing different concentrations of D-Δ1-14N-Ter-Antp (SEQ ID NO:9). The previously disclosed LP4 peptide conjugated to Tf (Tf-D-LP4 peptide, SEQ ID NO:20) was used as a reference of activity. At the end of the incubation time the cells were stained with PI and the level of cell death, reflected by the percentage of PI-positive cells, was determined by flow cytometry.

[2] = test system: rat glioblastoma cells (C6); assay: Cell death of C6 cells, PI staining and flow cytometry; type: cell-based; conditions: 6 h, serum-free medium, PI-positive cells
Protocol: as §1

T-Rex-293 cells = type: cell-based
Text: (§2) Data represent mean values, n=3.
(§3) It was previously disclosed that peptide Antp-LP4 (SEQ ID NO:23) derived from another part of VDAC1, selectively induce cell death of cancerous cells co-expressing the cell surface markers CD19 and CD5 (U.S. Pat. No. 8,648,045) as well as other cancer cells as HeLa.

[3] = test system: human prostate cancer cell lines (PC3); type: cell-based
Text: as §2, §3

glioblastoma U-87 cells = assay: ATP quantification (CellTiter-Glo); type: cell-based, human; conditions: 3 h incubation
Protocol: U-87 cells were seeded in 96-well plates (2×10^6/ml), incubated for 3 h with the indicated concentrations of D-Δ1-14N-Ter-Antp (SEQ ID NO:9), washed twice with PBS and incubated with the CellTiter-Glo reagent (Promega). Luminescence was recorded using an Infinite M1000 microplate reader (Tecan Trading, Mannedorf, Switzerland).
VDAC1 is a key component in regulating the energy production of the cell. It is known that cancer cells are characterized by elevated energy demand. The effects of D-Δ(1-14) N-Ter-Antp on the mitochondrial inner membrane polarization and cellular ATP level were examined using glioblastoma U-87 cells. U-87 cells were incubated for 3 h with the various concentrations of D-Δ1-14N-Ter-Antp or with FCCP (10 μM, control for depolarization) for 1 h.

[4] = test system: glioblastoma xenografts (U87 cells); assay: Tumor growth of U87 glioblastoma xenografts in nude mice; type: in vivo; conditions: xenografts injected with 10 μl of 20 or 40 μM solutions
Protocol: U87 cells were inoculated into male nude mice (7×10^6 cells/mouse). Tumor volumes were monitored (using a digital caliper) and on day 11, the mice were divided into […] (5 mice per group), with each mouse containing a tumor with a volume between 100-200 mm^3 and similar average volumes measured per group. The four mice groups were subjected to the following treatments: Xenografts were injected with 0.26% DMSO (control), with D-Δ1-14N-Ter-Antp (10 μl of 20 or 40 μM solutions) or with the previously disclosed Tf-LP4 peptide (10 μl of a 20 μM solution).

## CC[C@@H](C)[C@@H](NC(=O)[C@@H](CCCCN)NC(=O)[C@H](NC(=O)[C@@H](CCC(N)=O)NC(=O)[C@@H](CCCNC(=N)N)NC(=O)[C@@H](CC(C)C)NC(=O)CNC(=O)[C@@H](Cc1ccccc1)NC(=O)CNC(=O)[C@@H](Cc1ccc(O)cc1)NC(=O)CNC(=O)[C@@H](CCCCN)NC(=O)[C@H](NC(=O)[C@@H](Cc1ccccc1)NC(=O)[C@H](NC(=O)[C@@H](CC(=O)O)NC(=O)[C@H](N)CCCNC(=N)N)C(C)C)[C@H](C)O)[C@H](C)CC)C(=O)N[C@H](Cc1c[nH]c2ccccc12)C(=O)N[C@H](Cc1ccccc1)C(=O)N[C@H](CCC(N)=O)C(=O)N[C@H](CC(N)=O)C(=O)N[C@H](CCCNC(=N)N)C(=O)N[C@H](CCCNC(=N)N)C(=O)N[C@H](CCSC)C(=O)N[C@H](CCCCN)C(=O)N[C@H](Cc1c[nH]c2ccccc12)C(=O)N[C@H](CCCCN)C(=O)N[C@H](CCCCN)C(=O)O [D-Δ(1-14) N-Ter-Antp, ALL D-RDVFTKGYGFGL RQIKIWFQNRRMKWKK] (H-[dR][dD][dV][dF][dT][dK]G[dY]G[dF]G[dL][dR][dQ][dI][dK][dI][dW][dF][dQ][dN][dR][dR][dM][dK][dW][dK][dK]-OH)
CLL-derived lymphocytes
  IC50: 1300 ± 100 nM
MEC-1 cells
  IC50: 2100 ± 300 nM
[1]
  IC50: 2050 nM
[2]
  IC50: 5.3 µM
T-Rex-293 cells; T-Rex-293 control cells
  induction of cell death, in words: some induction of cell death
T-Rex-293 cells; non-malignant cells TRex-293, read-out: IC50, cell death, non-malignant cells TRex-293
  IC50: > 14.3 µM
[3]; PC3 cells
  induction of cell death, in words: dramatic cell death
[3]; prostate cell line PC3, read-out: IC50, cancer cell death, PC3
  IC50: 1510 nM
Glioblastoma U-87 cells
  cellular ATP level: almost complete reduction of cellular ATP level
[4]
  tumor size: significantly reduced the tumor size
